Data on ten molecules can be found in ChEMBL document CHEMBL1201862, “PubChem BioAssay data set” (2004).

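Grown in 96-well plates, cells were treated for 48 hours with each compound at five concentrations. Insufficient inhibition: endpoint recorded as highest concentration tested. At the GI50, growth is halved.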 Calls of active or inactive are those of the source. Rule as the data show it: active = GI50 up to about 1.1 µM and inactive = higher.

Test systems include OVCAR-8; RXF 393; CCRF-CEM; MCF7; SF-268; SF-295; SNB-19; A549; SF-539; HCT-116; UACC-257; ACHN; NCI-H460; MDA-MB-231; SK-OV-3; SN12C; K562; EKVX; CAKI-1; SK-MEL-28.
Common to all, as to test: inhibition of tumour cell growth, NCI panel, 48 h

With `COc1nncc2[nH]c(-c3ccccc3)cc12`, the GI50 in the experiment with OVCAR-8 was 92.5 µM (inactive); in the experiment with RXF 393 it was > 100 µM (inactive); with CCRF-CEM it was 44.9 µM (inactive); in the experiment on MCF7 it was 49.7 µM (inactive); with SF-268 it was 65.8 µM (inactive); in the experiment on SF-295 it was 82.4 µM (inactive). Moreover, the GI50 in the experiment with SNB-19 is > 100 µM (inactive); in the experiment with A549 it was 65.3 µM (inactive); with SF-539, > 100 µM (inactive); with HCT-116 it was 50.8 µM (inactive); in the experiment on UACC-257 it was 71.1 µM (inactive); with ACHN, 54 µM (inactive). The GI50 in the experiment on NCI-H460 was 64.6 µM (inactive); in the experiment on MDA-MB-231 it was 49.8 µM (inactive); in the experiment on SK-OV-3 it was > 100 µM (inactive); in the experiment with SN12C it was 40.9 µM (inactive); in the experiment with K562 it was 56.6 µM (inactive); with EKVX, 29.4 µM (inactive). Besides, the GI50 in the experiment with CAKI-1 is 96.8 µM (inactive).

As for `O=C(CN1c2ccccc2Sc2ccccc21)N1CCNCC1`, the GI50 in the experiment with OVCAR-8 was > 100 µM (inactive); with RXF 393, 97.5 µM (inactive); in the experiment on CCRF-CEM it was 99.8 µM (inactive); in the experiment with MCF7, > 100 µM (inactive); with SF-268, > 100 µM (inactive); in the experiment on SF-295, > 100 µM (inactive). The GI50 in the experiment on SNB-19, in the experiment on A549, in the experiment with SK-MEL-28, in the experiment with SF-539, in the experiment on HCT-116 and with UACC-257 was > 100 µM (inactive) each time. For the same molecule, the GI50 in the experiment on ACHN, in the experiment with NCI-H460, with MDA-MB-231, in the experiment with SK-OV-3, in the experiment on SN12C and in the experiment on K562 was > 100 µM (inactive) each time. In the experiment with EKVX, the GI50 was > 100 µM (inactive).

Turning to `O=CC(O)C(O)C(O)C(O)COC(=O)NCCCCC(=O)C(F)(F)C(F)(F)C(F)(F)C(F)(F)C(F)(F)C(F)(F)C(F)(F)F` (configuration not stated), the GI50 with RXF 393 is 18.3 µM (inactive); in the experiment on CCRF-CEM, 18.4 µM (inactive); in the experiment with MCF7, 19.1 µM (inactive); in the experiment with SF-268, 24.8 µM (inactive); in the experiment with SF-295, 23.2 µM (inactive); with SNB-19, 16 µM (inactive). Also, the GI50 was 28.8 µM (inactive) in the experiment with A549; 43.7 µM (inactive) in the experiment with SK-MEL-28; 19.8 µM (inactive) with SF-539; 18 µM (inactive) with HCT-116; > 10 µM (inactive) with UACC-257; 30.2 µM (inactive) with ACHN. Besides, the GI50 was 26.9 µM (inactive) with NCI-H460; 20 µM (inactive) in the experiment with MDA-MB-231; 21.7 µM (inactive) in the experiment on SK-OV-3; 32.4 µM (inactive) in the experiment on SN12C; 11.8 µM (inactive) in the experiment on K562; 49.8 µM (inactive) with CAKI-1.

Turning to `COc1c(C)c(C/C=C(\C)CC/C=C(\C)CCC=C(C)C)c(OC)c(OC)c1OC`, the GI50 was > 100 µM (inactive) in the experiment on OVCAR-8; 44 µM (inactive) in the experiment with RXF 393; 56.5 µM (inactive) with CCRF-CEM; 44.2 µM (inactive) in the experiment with MCF7; > 100 µM (inactive) with SF-268; 75 µM (inactive) in the experiment with SF-295. Also, the GI50 was > 100 µM (inactive) with SNB-19; 49.3 µM (inactive) in the experiment with A549; > 100 µM (inactive) in the experiment on SF-539; > 100 µM (inactive) in the experiment with HCT-116; 64.9 µM (inactive) with UACC-257; > 100 µM (inactive) with ACHN. Besides, the GI50 was > 100 µM (inactive) in the experiment on NCI-H460; > 100 µM (inactive) in the experiment on MDA-MB-231; > 100 µM (inactive) in the experiment with SK-OV-3; > 100 µM (inactive) in the experiment with SN12C; > 100 µM (inactive) in the experiment with K562; 83.9 µM (inactive) with EKVX. Besides, the GI50 with CAKI-1 was > 100 µM (inactive).

In the case of `CC(O)[C@@]1(c2ccccc2)CC2(CCN(C)CC2)O[C@H]1C` (some centres not stated), the GI50 in the experiment with OVCAR-8 was > 100 µM (inactive); in the experiment with RXF 393 it was > 100 µM (inactive); in the experiment on CCRF-CEM, 0.465 µM (active); in the experiment on MCF7, > 100 µM (inactive); in the experiment on SF-268, > 100 µM (inactive); in the experiment on SF-295, > 100 µM (inactive). Further, the GI50 with SNB-19, in the experiment on A549, in the experiment on SK-MEL-28, in the experiment on SF-539, in the experiment with UACC-257 and with ACHN was > 100 µM (inactive) each time. Besides, the GI50 was > 100 µM (inactive) with NCI-H460; > 100 µM (inactive) with MDA-MB-231; 41 µM (inactive) with SK-OV-3; > 100 µM (inactive) with K562; > 100 µM (inactive) in the experiment on EKVX; > 100 µM (inactive) with CAKI-1.

`CCOc1cc2c(cc1O)/C(=N/NS(=O)(=O)c1ccc(C)cc1)C[C@@H]1[C@@H]2CC[C@]2(C)[C@@H](O)CC[C@@H]12`: the GI50 is 12.4 µM (inactive) in the experiment with OVCAR-8; 4.85 µM (inactive) with RXF 393; 3.79 µM (inactive) with CCRF-CEM; 4.02 µM (inactive) with MCF7; 7.13 µM (inactive) with SF-268; 3.15 µM (inactive) with SF-295. In addition, the GI50 was 8.79 µM (inactive) with SNB-19; 6.46 µM (inactive) with A549; > 100 µM (inactive) with SK-MEL-28; 3.45 µM (inactive) in the experiment with SF-539; 58.2 µM (inactive) in the experiment on UACC-257; 10.5 µM (inactive) in the experiment with ACHN. The GI50 is 4.65 µM (inactive) with NCI-H460; 8.51 µM (inactive) in the experiment with MDA-MB-231; 10.5 µM (inactive) in the experiment on SK-OV-3; 1.02 µM (active) in the experiment on K562; 13 µM (inactive) in the experiment with EKVX; 12.6 µM (inactive) in the experiment with CAKI-1.

For the molecule `COc1cc2c(cc1O)CCN[C@@]21CS[C@H]2c3c(OC(C)=O)c(C)c4c(c3C(COC1=O)N1C2C2NC(Cc3cc(C)c(OC)c(O)c32)[C@@H]1O)OCO4` (some centres not stated), the GI50 in the experiment on OVCAR-8, in the experiment with RXF 393, in the experiment on CCRF-CEM, in the experiment with MCF7, in the experiment on SF-268 and in the experiment with SF-295 was < 0.01 µM (active) in each case. Further, the GI50 in the experiment with SNB-19, in the experiment on A549, with SK-MEL-28, with SF-539, with HCT-116 and in the experiment on UACC-257 was < 0.01 µM (active) in each case. Moreover, the GI50 in the experiment with ACHN, in the experiment with NCI-H460, in the experiment with MDA-MB-231, in the experiment on SK-OV-3, in the experiment on K562 and in the experiment on EKVX was < 0.01 µM (active) each time. In addition, the GI50 with CAKI-1 is < 0.01 µM (active).

As for `COc1cc(C2c3cc4c(cc3OC3(OC)COC(=O)C23)OCO4)cc(OC)c1OC(C)=O` (configuration not stated), the GI50 in the experiment on OVCAR-8 was 2.52 µM (inactive); in the experiment on RXF 393, 0.499 µM (active); with CCRF-CEM it was 2.24 µM (inactive); with MCF7, 1.07 µM (active); in the experiment on SF-268 it was 6.75 µM (inactive); with SF-295, 0.321 µM (active). For the same molecule, the GI50 in the experiment on SNB-19 was 5.94 µM (inactive); in the experiment on A549, 1.54 µM (inactive); in the experiment with SK-MEL-28, 2.27 µM (inactive); in the experiment on SF-539, 0.374 µM (active); with HCT-116, 0.785 µM (active); in the experiment on UACC-257 it was > 39.4 µM (inactive). For the same molecule, the GI50 was 1.32 µM (inactive) in the experiment with ACHN; 0.705 µM (active) with NCI-H460; 2.9 µM (inactive) in the experiment on MDA-MB-231; 1.66 µM (inactive) with SK-OV-3; 3.93 µM (inactive) in the experiment on SN12C; 1.04 µM (active) in the experiment with K562. The GI50 in the experiment with EKVX is > 35.8 µM (inactive).

Consider `C[C@H](C(=O)N1C(=O)O[C@@H](c2ccccc2)[C@H]1C)[C@H](c1ccccc1)N(Cc1ccccc1)OC(=O)c1ccccc1`, for which the GI50 with OVCAR-8 is 37.5 µM (inactive); in the experiment with RXF 393, 73.8 µM (inactive); in the experiment with CCRF-CEM, 37.2 µM (inactive); in the experiment on MCF7 it was 30.1 µM (inactive); in the experiment with SF-268, 33.8 µM (inactive); with SF-295, 21.6 µM (inactive). Further, the GI50 was 35 µM (inactive) in the experiment on SNB-19; 32.9 µM (inactive) with A549; > 100 µM (inactive) in the experiment with SK-MEL-28; 71.3 µM (inactive) in the experiment with SF-539; 34.1 µM (inactive) in the experiment on HCT-116; 20.9 µM (inactive) in the experiment with UACC-257. Also, the GI50 with ACHN was 31.8 µM (inactive); with NCI-H460, 30.4 µM (inactive); with MDA-MB-231, 94 µM (inactive); in the experiment with SK-OV-3, 38.8 µM (inactive); with SN12C, 80.7 µM (inactive); with K562, 31.6 µM (inactive). Besides, in the experiment with CAKI-1, the GI50 is 77.1 µM (inactive).

Consider `C=C(C)[C@@H]1CC[C@]2(CO)CC[C@]3(C)[C@H](CC[C@@H]4[C@@]5(C)CC[C@H](O)C(C)(C)[C@@H]5CC[C@]43C)[C@@H]12` [BETULIN], for which the GI50 in the experiment with OVCAR-8 is 12.5 µM (inactive); with RXF 393 it was 10.3 µM (inactive); in the experiment on CCRF-CEM it was 34.5 µM (inactive); in the experiment on MCF7, 19.9 µM (inactive); with SF-268 it was 25.1 µM (inactive); with SF-295, 14 µM (inactive). Further, the GI50 is > 10 µM (inactive) in the experiment on SNB-19; 9.35 µM (inactive) with A549; 33.1 µM (inactive) with SK-MEL-28; 11.7 µM (inactive) in the experiment with SF-539; 30.8 µM (inactive) in the experiment with HCT-116; 23.3 µM (inactive) with UACC-257. The GI50 in the experiment on ACHN is 11.1 µM (inactive); with NCI-H460, 19.3 µM (inactive); in the experiment on MDA-MB-231, 33.3 µM (inactive); in the experiment with SN12C, 24.8 µM (inactive); in the experiment on K562, 15.8 µM (inactive); with EKVX, 25.6 µM (inactive). In the experiment on CAKI-1, the GI50 is 15.3 µM (inactive).
